The results in this text go back to ChEMBL document CHEMBL1126567, “CC-1065 functional analogues possessing different electron-withdrawing substituents and leaving groups: synthesis, kinetics, and sequence specificity of reaction with DNA and biological evaluation” (J Med Chem, 1993).

This test can be described thus: In vitro reduction in viability of KB cells by modified crystal violet assay. It is filed as functional, cell-based. To be noted: Homo sapiens.

SMILES strings stand for the structures. In brackets after ≈: the same amount, converted by molar mass.

Compound `CS(=O)(=O)N1CC(CCl)c2ccc(O)cc21` (configuration not stated) yielded an IC50 of 4.24 µg/mL (≈ 16.2 µM). In the case of `CS(=O)(=O)N1CC(CCl)c2cc(C=O)c(O)cc21` (configuration not stated) it was 4.83 µg/mL (≈ 16.7 µM); in that of `CS(=O)(=O)OCC1CN(S(C)(=O)=O)c2cc(O)c(Br)cc21` (configuration not stated), 0.308 µg/mL (≈ 0.769 µM). In the case of `CS(=O)(=O)OCC1CN(S(C)(=O)=O)c2cc(O)ccc21` (configuration not stated) it was 3.69 µg/mL (≈ 11.5 µM); in that of `CS(=O)(=O)N1CC(CCl)c2cc([N+](=O)[O-])c(O)cc21` (configuration not stated), 8.85 µg/mL (≈ 28.9 µM); in that of `CS(=O)(=O)N1CC(CCl)c2cc(C=O)c(OCc3ccccc3)cc21` (configuration not stated), 3.24 µg/mL (≈ 8.53 µM). Regarding `CS(=O)(=O)N1CC(CCl)c2cc(Br)c(OCc3ccccc3)cc21` (configuration not stated), the IC50 turned out to be 6.18 µg/mL (≈ 14.3 µM). Consider `CS(=O)(=O)OCC1CN(S(C)(=O)=O)c2cc(OCc3ccccc3)ccc21` (configuration not stated), for which inhibition was half-maximal at 4.39 µg/mL (≈ 10.7 µM) (IC50).

In turn, `CS(=O)(=O)OCC1CN(S(C)(=O)=O)c2cc(OCc3ccccc3)c([N+](=O)[O-])cc21` (configuration not stated) gave an IC50 of 7.91 µg/mL (≈ 17.3 µM). In the case of `COC(=O)c1cc2c(cc1OCc1ccccc1)N(S(C)(=O)=O)CC2CCl` (configuration not stated) it was 7.14 µg/mL (≈ 17.4 µM); in that of `CS(=O)(=O)N1CC2CC23C=CC(=O)C=C13` (configuration not stated), 8.64 µg/mL (≈ 38.4 µM).

Compound `COC(=O)c1cc2c(cc1O)N(S(C)(=O)=O)CC2CCl` (configuration not stated) registered a concentration for half-maximal inhibition (IC50) of 8.38 µg/mL (≈ 26.2 µM). In turn, `CS(=O)(=O)N1CC(CCl)c2ccc(OCc3ccccc3)cc21` (configuration not stated) came in with an IC50 of 6.32 µg/mL (≈ 18 µM). In the case of `CS(=O)(=O)OCC1CN(S(C)(=O)=O)c2cc(O)c([N+](=O)[O-])cc21` (configuration not stated) it was 0.764 µg/mL (≈ 2.09 µM); in that of `COc1cccc2c1C(=O)c1c(O)c3c(c(O)c1C2=O)C[C@@](O)(C(=O)CO)C[C@@H]3O[C@H]1C[C@H](N)[C@H](O)[C@H](C)O1` [DOXORUBICIN], 0.02 µg/mL (≈ 0.0368 µM). In turn, `CS(=O)(=O)N1CC(CCl)c2cc(Br)c(O)cc21` (configuration not stated) had an IC50 of 3.8 µg/mL (≈ 11.2 µM). Against the preceding compound, the IC50 is about 190-fold higher. The value for `CS(=O)(=O)OCC1CN(S(C)(=O)=O)c2cc(OCc3ccccc3)c(Br)cc21` (configuration not stated) was 5.21 µg/mL (≈ 10.6 µM).
